Results reported in ChEMBL document CHEMBL1201862, “PubChem BioAssay data set” (2004).
Calls of active or inactive are those of the source.

Columns and labels:
[1] = tested on: HEK293; assay: NOD2 signaling inhibitors in MDP-stimulated cells, cell-based, uHTS, luminescence (AID 2001); assay type: functional; conditions: Homo sapiens
[2] = tested on: HEK293; assay: cells; assay type: functional, cell-based; conditions: Homo sapiens
[3] = tested on: BJ; assay: cells; assay type: functional, cell-based; conditions: Homo sapiens
[4] = tested on: HEK293; assay: cells; assay type: functional, cell-based; conditions: Homo sapiens; remark: listed apart in the source
[5] = biological target: Nucleotide-binding oligomerization domain-containing protein 2 (Homo sapiens, UniProt Q9HC29); assay: NOD2 signaling inhibitors, cell-based, luminescence, uHTS, HEK293 (AID 1566); assay type: functional
[6] = tested on: HEK293; assay: NOD1 signaling inhibitors, primary screen, cell-based, luminescence, uHTS (AID 1578); assay type: functional; conditions: Homo sapiens
[7] = tested on: BJ; assay: cytotoxicity toward BJ-TERT fibroblasts, dose response, cell-based, RAS-independent, luminescence (AID 1933); assay type: functional; conditions: Homo sapiens
[8] = tested on: BJ; assay: cytotoxicity toward BJ-TERT-LT-ST fibroblasts, dose response, cell-based, RAS-independent, luminescence (AID 1935); assay type: functional; conditions: Homo sapiens;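 also: BJ fibroblasts immortalized with TERT plus LT and ST oncogenes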
[9] = cytotoxicity toward DRD oncogenic fibroblasts, dose response, cell-based, non-viral oncogenic, luminescence (AID 1934); assay type: functional; conditions: Homo sapiens
[10] = tested on: HEK293; assay: cells; assay type: functional, cell-based; conditions: Homo sapiens; remark: listed apart in the source
[11] = tested on: INS1; assay: beta cell apoptosis inhibitors, cytokine rescue, dose response, luminescence, retest (AID 449756); assay type: functional, cell-based; conditions: Rattus norvegicus;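 also: cell death triggered by IL-1 beta plus TNF-alpha plus IFN-gamma mixture; protective hits raise ATP signal compared with cytokine alone wells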
[12] = biological target: DNA dC->dU-editing enzyme APOBEC-3G (Homo sapiens, UniProt Q9HC16); assay: Dose Response confirmation of small molecule APOBEC3G DNA Deaminase Inhibitors via a fluorescence-based single-stranded DNA deaminase assay. [Related pubchem assays (depositor defined):AID493012, AID493028]; assay type: functional
[13] = biological target: T1, Nucleotide-binding oligomerization domain-containing protein 1 (Homo sapiens, UniProt Q9Y239); assay: NOD1 signaling inhibitors, SAR follow-up, revised (AID 2333); assay type: functional
T1 sequence (Q9Y239 whole entry): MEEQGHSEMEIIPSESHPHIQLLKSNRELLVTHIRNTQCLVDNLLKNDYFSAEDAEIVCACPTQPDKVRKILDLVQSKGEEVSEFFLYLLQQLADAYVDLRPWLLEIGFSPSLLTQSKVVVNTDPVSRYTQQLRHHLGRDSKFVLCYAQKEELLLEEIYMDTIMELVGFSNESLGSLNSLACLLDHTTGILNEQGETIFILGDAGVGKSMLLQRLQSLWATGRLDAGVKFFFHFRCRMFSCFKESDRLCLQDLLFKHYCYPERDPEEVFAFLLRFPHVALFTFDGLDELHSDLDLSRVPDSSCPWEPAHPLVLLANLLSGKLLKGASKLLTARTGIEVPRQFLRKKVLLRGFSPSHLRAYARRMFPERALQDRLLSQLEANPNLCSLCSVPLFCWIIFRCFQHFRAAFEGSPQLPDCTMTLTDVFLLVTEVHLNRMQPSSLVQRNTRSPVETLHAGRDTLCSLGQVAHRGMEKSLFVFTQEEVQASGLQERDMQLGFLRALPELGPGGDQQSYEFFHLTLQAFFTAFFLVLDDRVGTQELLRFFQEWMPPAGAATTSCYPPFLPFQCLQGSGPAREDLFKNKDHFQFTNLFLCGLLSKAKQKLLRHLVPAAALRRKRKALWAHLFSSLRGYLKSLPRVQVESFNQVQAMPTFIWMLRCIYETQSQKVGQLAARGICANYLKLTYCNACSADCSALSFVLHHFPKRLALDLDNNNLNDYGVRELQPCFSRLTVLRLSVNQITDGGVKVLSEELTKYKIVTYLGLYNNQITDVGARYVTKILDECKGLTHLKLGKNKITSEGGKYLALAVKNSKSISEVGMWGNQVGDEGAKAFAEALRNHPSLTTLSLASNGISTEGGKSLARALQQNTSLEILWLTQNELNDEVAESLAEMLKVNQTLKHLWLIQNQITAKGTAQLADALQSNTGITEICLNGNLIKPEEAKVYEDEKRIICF

[14] = cytotoxicity in HEK-293T cells, dose response, cytotoxicity control for TCR NF-kB inhibitor project, luminescence, T-cell screen hits (AID 489026); assay type: functional, cell-based;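 also: cells exposed to compound about 14 hours before the viability readout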
[15] = biological target: Tumor necrosis factor (Homo sapiens, UniProt P01375); assay: TNFa-triggered NF-kB activation inhibitors, SAR follow-up, cell-based, revised (AID 2337); assay type: functional
[16] = tested on: HEK293; assay: cells; conditions: Homo sapiens
[17] = biological target: Trypsin (Sus scrofa, UniProt P00761); assay: porcine trypsin inhibitors, dose response, selectivity assay for Rce1 protease inhibitor project, biochemical, quenched peptide fluorescence, cherry-pick (AID 488789)
[18] = biological target: T2, Rac GTPase-activating protein 1 (Homo sapiens, UniProt Q9H0H5); assay: MgcRacGAP GTPase-activating activity inhibitors, confirmation, biochemical, ADP Hunter fluorescence, primary and confirmatory (AID 624330); assay type: functional
T2 sequence (Q9H0H5 whole entry): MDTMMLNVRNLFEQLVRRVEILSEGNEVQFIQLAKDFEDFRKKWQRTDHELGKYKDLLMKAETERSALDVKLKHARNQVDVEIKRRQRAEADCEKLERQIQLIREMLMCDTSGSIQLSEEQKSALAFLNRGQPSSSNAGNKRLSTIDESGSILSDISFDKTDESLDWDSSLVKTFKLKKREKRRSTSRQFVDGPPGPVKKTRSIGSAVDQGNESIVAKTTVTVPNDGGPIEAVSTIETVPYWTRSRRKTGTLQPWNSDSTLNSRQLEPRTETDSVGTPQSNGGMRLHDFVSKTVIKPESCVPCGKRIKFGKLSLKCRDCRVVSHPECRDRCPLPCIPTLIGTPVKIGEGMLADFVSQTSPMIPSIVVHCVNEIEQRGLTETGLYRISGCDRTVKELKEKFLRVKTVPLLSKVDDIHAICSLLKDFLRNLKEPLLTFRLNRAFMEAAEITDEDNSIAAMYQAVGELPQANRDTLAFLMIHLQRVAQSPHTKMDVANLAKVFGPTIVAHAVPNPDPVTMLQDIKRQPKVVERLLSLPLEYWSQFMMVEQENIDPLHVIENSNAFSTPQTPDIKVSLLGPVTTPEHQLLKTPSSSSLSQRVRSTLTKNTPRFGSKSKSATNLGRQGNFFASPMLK

[19] = biological target: T3, CAAX prenyl protease 2 (Saccharomyces cerevisiae S288c, UniProt Q03530); assay type: biochemical
T3 sequence (Q03530 whole entry): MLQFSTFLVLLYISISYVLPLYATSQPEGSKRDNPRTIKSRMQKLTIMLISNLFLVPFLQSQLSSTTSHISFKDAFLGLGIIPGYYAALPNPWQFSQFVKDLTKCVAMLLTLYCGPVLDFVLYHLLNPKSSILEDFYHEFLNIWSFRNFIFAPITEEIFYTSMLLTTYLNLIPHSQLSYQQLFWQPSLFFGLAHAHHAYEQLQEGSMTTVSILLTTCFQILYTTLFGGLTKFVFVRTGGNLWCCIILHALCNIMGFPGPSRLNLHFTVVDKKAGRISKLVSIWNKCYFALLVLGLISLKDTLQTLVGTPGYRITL

[20] = inhibitors of intracellular T. cruzi replication, confirmation, NIH3T3 host cells, beta-gal luminescence (AID 2044); assay type: functional, cell-based;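 also: intracellular parasites grown in NIH/3T3 mouse fibroblasts as host cells; luminescent beta-galactosidase reporter signal from transgenic T. cruzi replicating inside host cells; inhibitors lower the luminescence signal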
[21] = cytotoxicity toward NIH3T3 fibroblasts, dose response, counter-screen, cell-based, ATP luminescence, mouse fibroblasts (AID 2010); assay type: functional;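 also: cells exposed to compound for about 90 hours before reading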
[22] = HeLa cell cytotoxicity, dose response, cytotoxicity control for MgcRacGAP inhibitor project (AID 624300); assay type: functional
[23] = biological target: T4, Coagulation factor XII (Homo sapiens, UniProt P00748); assay type: functional;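 also: activated factor XIIa alpha cleaving a fluorogenic AMC peptide substrate; inhibitor potency from loss of enzyme activity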
T4 sequence (P00748 whole entry): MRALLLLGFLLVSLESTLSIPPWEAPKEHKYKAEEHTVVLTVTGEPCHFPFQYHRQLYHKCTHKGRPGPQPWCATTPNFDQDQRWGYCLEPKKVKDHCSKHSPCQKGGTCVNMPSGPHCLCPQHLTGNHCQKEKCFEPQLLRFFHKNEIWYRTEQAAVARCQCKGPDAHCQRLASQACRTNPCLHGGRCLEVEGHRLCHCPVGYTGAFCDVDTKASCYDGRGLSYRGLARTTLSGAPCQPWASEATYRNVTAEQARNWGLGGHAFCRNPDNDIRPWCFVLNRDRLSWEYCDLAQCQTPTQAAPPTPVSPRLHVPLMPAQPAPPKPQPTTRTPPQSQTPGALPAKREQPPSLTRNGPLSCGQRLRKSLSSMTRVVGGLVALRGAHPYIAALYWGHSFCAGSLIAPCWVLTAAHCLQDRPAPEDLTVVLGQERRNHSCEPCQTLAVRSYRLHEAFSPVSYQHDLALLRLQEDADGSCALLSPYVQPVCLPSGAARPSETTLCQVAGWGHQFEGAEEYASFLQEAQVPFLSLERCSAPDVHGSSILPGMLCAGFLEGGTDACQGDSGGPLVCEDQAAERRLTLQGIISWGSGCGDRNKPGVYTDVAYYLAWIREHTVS

[24] = biological target: T5, Aminopeptidase N (Plasmodium falciparum FcB1/Columbia, UniProt O96935); assay: P. falciparum M1AAP inhibitors, biochemical, fluorogenic H-Leu-NHMec substrate, 1536-well (AID 1445); design: species or system Plasmodium falciparum 3D7, 3D7
T5 sequence (O96935 whole entry): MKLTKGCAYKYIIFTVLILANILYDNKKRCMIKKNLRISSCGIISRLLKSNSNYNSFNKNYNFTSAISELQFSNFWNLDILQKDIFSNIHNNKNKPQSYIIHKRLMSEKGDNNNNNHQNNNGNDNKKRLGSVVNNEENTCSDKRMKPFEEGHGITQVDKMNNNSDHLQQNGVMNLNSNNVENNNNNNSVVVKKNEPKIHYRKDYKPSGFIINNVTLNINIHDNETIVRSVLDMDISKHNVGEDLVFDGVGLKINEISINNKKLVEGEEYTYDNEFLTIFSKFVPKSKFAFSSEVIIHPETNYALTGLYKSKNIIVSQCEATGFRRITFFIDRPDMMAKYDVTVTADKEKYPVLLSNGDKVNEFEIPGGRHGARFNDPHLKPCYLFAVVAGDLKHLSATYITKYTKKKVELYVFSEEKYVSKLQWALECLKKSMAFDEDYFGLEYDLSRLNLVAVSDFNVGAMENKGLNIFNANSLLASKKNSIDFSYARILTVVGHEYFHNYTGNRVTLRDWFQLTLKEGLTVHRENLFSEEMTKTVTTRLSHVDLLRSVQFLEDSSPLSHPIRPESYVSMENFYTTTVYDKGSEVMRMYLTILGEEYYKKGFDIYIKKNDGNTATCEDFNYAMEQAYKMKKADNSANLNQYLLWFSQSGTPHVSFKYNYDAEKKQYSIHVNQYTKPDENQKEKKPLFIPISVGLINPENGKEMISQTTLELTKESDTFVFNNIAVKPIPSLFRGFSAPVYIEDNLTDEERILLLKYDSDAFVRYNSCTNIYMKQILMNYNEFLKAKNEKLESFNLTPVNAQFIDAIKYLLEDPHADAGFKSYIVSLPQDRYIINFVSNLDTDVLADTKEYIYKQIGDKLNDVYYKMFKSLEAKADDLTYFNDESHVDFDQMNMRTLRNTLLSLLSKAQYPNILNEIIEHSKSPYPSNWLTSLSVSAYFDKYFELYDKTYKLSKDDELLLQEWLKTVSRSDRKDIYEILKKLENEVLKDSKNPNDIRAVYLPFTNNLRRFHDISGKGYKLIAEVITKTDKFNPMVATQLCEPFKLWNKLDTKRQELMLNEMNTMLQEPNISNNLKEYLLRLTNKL

Chain of Nucleotide-binding oligomerization domain-containing protein 2 (Q9HC29 whole entry, the tested form may be a part): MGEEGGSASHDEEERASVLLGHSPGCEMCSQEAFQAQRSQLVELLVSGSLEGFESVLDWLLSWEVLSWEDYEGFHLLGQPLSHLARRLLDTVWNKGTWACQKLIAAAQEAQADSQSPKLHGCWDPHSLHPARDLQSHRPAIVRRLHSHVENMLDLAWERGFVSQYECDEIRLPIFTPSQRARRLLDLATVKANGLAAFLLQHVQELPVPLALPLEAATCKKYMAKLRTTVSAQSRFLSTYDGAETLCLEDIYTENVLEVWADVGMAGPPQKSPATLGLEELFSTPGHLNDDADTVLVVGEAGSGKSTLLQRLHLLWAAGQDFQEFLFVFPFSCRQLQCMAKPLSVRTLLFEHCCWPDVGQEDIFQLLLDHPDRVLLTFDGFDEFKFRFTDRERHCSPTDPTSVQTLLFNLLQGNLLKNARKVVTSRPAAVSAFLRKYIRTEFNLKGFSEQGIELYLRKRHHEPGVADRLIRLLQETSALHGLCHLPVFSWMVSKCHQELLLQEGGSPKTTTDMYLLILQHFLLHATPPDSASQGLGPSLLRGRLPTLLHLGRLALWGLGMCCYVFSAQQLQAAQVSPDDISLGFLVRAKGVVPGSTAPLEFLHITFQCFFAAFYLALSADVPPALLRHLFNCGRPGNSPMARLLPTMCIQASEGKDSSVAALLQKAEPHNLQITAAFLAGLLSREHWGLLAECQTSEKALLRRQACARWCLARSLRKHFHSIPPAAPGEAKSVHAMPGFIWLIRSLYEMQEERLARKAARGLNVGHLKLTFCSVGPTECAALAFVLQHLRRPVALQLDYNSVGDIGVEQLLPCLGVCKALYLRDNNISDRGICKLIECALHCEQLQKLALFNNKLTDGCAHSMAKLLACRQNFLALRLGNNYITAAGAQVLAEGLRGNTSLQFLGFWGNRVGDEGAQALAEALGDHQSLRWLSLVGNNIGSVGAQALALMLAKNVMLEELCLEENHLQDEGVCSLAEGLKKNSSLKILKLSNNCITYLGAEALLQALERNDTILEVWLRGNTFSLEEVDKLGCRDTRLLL
Chain of DNA dC->dU-editing enzyme APOBEC-3G (Q9HC16 whole entry, the tested form may be a part): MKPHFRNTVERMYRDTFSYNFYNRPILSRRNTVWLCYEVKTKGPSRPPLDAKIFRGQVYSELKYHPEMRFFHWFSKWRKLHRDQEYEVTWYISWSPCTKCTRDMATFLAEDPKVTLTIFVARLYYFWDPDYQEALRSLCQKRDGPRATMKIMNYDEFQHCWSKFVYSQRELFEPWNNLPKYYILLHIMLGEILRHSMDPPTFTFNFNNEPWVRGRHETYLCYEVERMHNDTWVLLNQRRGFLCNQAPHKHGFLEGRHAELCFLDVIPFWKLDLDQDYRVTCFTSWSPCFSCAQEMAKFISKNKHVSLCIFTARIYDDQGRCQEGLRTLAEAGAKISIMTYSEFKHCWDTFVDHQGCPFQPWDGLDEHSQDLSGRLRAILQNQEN
Chain of Trypsin (P00761 whole entry): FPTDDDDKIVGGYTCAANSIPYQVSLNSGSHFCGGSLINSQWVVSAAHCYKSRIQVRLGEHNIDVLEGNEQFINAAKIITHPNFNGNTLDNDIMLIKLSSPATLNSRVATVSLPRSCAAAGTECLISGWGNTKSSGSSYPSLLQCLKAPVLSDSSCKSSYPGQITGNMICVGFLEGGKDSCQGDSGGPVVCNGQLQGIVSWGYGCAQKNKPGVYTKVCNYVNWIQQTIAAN
Chain of Tumor necrosis factor (P01375 whole entry): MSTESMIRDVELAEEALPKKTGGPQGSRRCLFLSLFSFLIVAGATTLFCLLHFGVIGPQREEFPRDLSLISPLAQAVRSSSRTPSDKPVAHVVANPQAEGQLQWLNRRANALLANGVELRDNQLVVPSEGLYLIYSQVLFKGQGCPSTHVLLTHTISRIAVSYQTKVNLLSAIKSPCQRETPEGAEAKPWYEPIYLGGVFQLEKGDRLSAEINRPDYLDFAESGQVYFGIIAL

## COc1cc(/C=C2\CC(C(C)(C)C)C/C(=C\c3cc(OC)c(OC)c(OC)c3)C2=O)cc(OC)c1OC (stereo not given)
[1]
  IC50: 4.98 µM (active)
[2]
  IC50: 4.76 µM (active)
[3]
  EC50: 12 µM (inconclusive)
[4]
  IC50: 18.3 µM (active)
[5]
  EC50: 8.66 µM (active)
[6]
  EC50: 5.25 µM (active)
[7]
  EC50: 4.94 µM (active)
[8]
  EC50: 5.18 µM (inconclusive)
[9]
  EC50: 4.23 µM (active)
[10]
  IC50: > 20 µM (inactive)
[11]
  AC50: 5.52 µM (active)

## O=C(O)c1ccc(-n2c(-c3ccc(Br)cc3)n[nH]c2=S)cc1
[12]
  IC50: 9.1 µM (active)

## COc1ccc(-c2c[nH]nc2-c2ccc(OCc3ccccc3F)cc2O)cc1OC
[1]
  IC50: 7.5 µM (active)
[2]
  IC50: 6.09 µM (active)
[4]
  IC50: 11.7 µM (active)
[5]
  EC50: > 20 µM (inactive)
[6]
  EC50: 9.16 µM (active)
[10]
  IC50: > 20 µM (inactive)

## O=C(COc1ccc2c(-c3ccccc3)cc(=O)oc2c1)Nc1cccnc1
[13]
  IC50: 3.17 µM (active)
[1]
  IC50: 10.8 µM (inactive)
[2]
  IC50: 2.21 µM (active)
[4]
  IC50: 18.7 µM (active)
[5]
  EC50: > 20 µM (inactive)
[14]
  IC50: > 80 µM (inactive)
[6]
  EC50: 0.75 µM (active)
[15]
  IC50: 4.59 µM (active)
[16]
  IC50: > 20 µM (inactive)
[10]
  IC50: > 20 µM (inactive)

## COCCCn1c(N)c(C(=O)NCc2ccco2)c2nc3ccccc3nc21
[17]
  AC50: 10.3 µM (active)

## COc1ccc(C2CC(c3ccc4ccccc4c3)=NN2C(=O)CNC2CCCCC2)cc1 (stereo not given)
[18]
  IC50: 110 µM (active)
[19]
  AC50: 9.16 µM (active)
[17]
  AC50: > 100 µM (inactive)
[20]
  EC50: 2.76 µM (active)
[21]
  EC50: > 30 µM (not active)
[22]
  CC50: 39 µM (active)

## C=CCn1c(SCC(=O)Nc2cccnc2Cl)nnc1-c1ccc(Cl)cc1
[23]
  IC50: > 50 µM (inactive)

## COc1ccc(S(=O)(=O)NC2=NC(=O)/C(=C\c3cc(OC)c(OC)cc3[N+](=O)[O-])S2)cc1
[24]
  IC50: 22.4 µM (active)

## CC(=O)Nc1ccc(S(=O)(=O)NCCNc2ccccc2[N+](=O)[O-])cc1
[23]
  IC50: > 50 µM (inactive)

## Cc1ncc(CN2CCCC(C(=O)c3ccc(C(C)(C)C)cc3)C2)s1 (stereo not given)
[23]
  IC50: > 50 µM (inactive)

## O=C(Nc1cc(S(=O)(=O)N2CCOCC2)ccc1N1CCCCC1)c1ccc(Cl)cc1
[12]
  IC50: 50.5 µM (active)
